# Earlier results as cited in PubChem BioAssay AID1259410 (Chemical Carcinogenesis Research Information System (CCRIS), 2018).
# Tested on: rodent tumor promotion studies, tumor incidence
# Assay: CCRIS tumor promotion studies
smiles,measurement,setting,value
COc1c2occc2cc2ccc(=O)oc12,outcome,"Carcinogen: 4-(Methylnitrosamino)-1-(3-pyridyl)-1-butanone (NNK), 64091-91-4, Doses [Carcinogen]: Once, 2 mg/0.1 ml saline/mouse on first day, study duration 32 wks, Doses [Carcinogen]: Once, 2 mg/0.1 ml saline/mouse on first day, study duration 32 wks, Doses [Promoter]: 100 ppm in diet from wks 2-16, study duration 32 wks, Route [Carcinogen]: Intraperitoneal, Route [Promoter]: Oral, Species: Mouse, Strain/Sex: A/J/Female","lung: adenoma (2.15 vs 1.54, not significant)"
same,outcome,"Carcinogen: 4-(Methylnitrosamino)-1-(3-pyridyl)-1-butanone (NNK), 64091-91-4, Doses [Carcinogen]: Once, 2 mg/0.1 ml saline/mouse on first day, study duration 32 wks, Doses [Carcinogen]: Once, 2 mg/0.1 ml saline/mouse on first day, study duration 32 wks, Doses [Promoter]: 100 ppm in diet from wks16-32, study duration 32 wks, Route [Carcinogen]: Intraperitoneal, Route [Promoter]: Oral, Species: Mouse, Strain/Sex: A/J/Female","lung: adenoma and adenocarcinoma (7.31 vs 6.78, not significant)"
Cc1cccc(Nc2cc(Cl)nc(SCC(=O)O)n2)c1C,outcome,"Carcinogen: 2-ACETYLAMINOFLUORENE, 53-96-3, Doses [Carcinogen]: 0.02% IN DIET FOR 8 WK, Doses [Promoter]: 0, 0.1% IN DIET FOR 37 WK BEGINNING 2 WK POST CARCINOGEN TREATMENT (STUDY DURATION: 39 WK), Route [Carcinogen]: ORAL, Route [Promoter]: ORAL, Species: RAT, Strain/Sex: F344/MALE",liver: adenoma
same,outcome,"Carcinogen: DIETHYLNITROSAMINE, 55-18-5, Doses [Carcinogen]: 150 MG/KG BW ONCE, Doses [Promoter]: 0, 0.1% IN DIET FOR 37 WK BEGINNING 2 WK POST CARCINOGEN TREATMENT (STUDY DURATION: 39 WK), Route [Carcinogen]: INTRAPERITONEAL, Route [Promoter]: ORAL, Species: RAT, Strain/Sex: F344/MALE",liver: adenoma
same,outcome,"Carcinogen: DIETHYLNITROSAMINE, 55-18-5, Doses [Carcinogen]: 150 MG/KG ONCE, Doses [Promoter]: 0.1% IN DIET BEGINNING 2 WK POST CARCINOGEN DOSE AND CONTINUING FOR 54 WK (STUDY DURATION: 56 WK), Route [Carcinogen]: INTRAPERITONEAL, Route [Promoter]: ORAL, Species: RAT, Strain/Sex: F344/MALE",liver: hepatocellular carcinoma or neoplastic nodule
same,outcome,"Carcinogen: DIETHYLNITROSAMINE, 55-18-5, Doses [Carcinogen]: 150 MG/KG ONCE, Doses [Promoter]: 0.1% IN DIET BEGINNING 2 WK POST CARCINOGEN DOSE FOR 71 WK FOLLOWED BY CONTROL DIET FOR DURATION OF STUDY (STUDY DURATIO, Route [Carcinogen]: INTRAPERITONEAL, Route [Promoter]: ORAL, Species: RAT, Strain/Sex: F344/MALE",liver: hepatocellular carcinoma or neoplastic nodule
same,outcome,"Carcinogen: DIETHYLNITROSAMINE, 55-18-5, Doses [Carcinogen]: 150 MG/KG ONCE, Doses [Promoter]: 0.1% IN DIET BEGINNING 11 WK POST CARCINOGEN DOSE AND CONTINUING FOR DURATION OF STUDY (STUDY DURATION: 56 WK), Route [Carcinogen]: INTRAPERITONEAL, Route [Promoter]: ORAL, Species: RAT, Strain/Sex: F344/MALE",liver: hepatocellular carcinoma or neoplastic nodule
[Cl][Zn][Cl],outcome,"Carcinogen: URETHANE, 51-79-6, Doses [Carcinogen]: 1.5 MG/G ONCE, Doses [Promoter]: 0, 50, 200, 500 UG/ML IN DEIONIZED DRINKING WATER BEGINNING 3 WK PRIOR TO CARCINOGEN DOSE AND CONTINUING FOR 12 WK POST, Doses [Promoter]: 0, 50, 200, 500 UG/ML IN DEIONIZED DRINKING WATER BEGINNING 3 WK PRIOR TO CARCINOGEN DOSE AND CONTINUING FOR 12 WK POST, Route [Carcinogen]: INTRAPERITONEAL, Route [Promoter]: ORAL, Species: MOUSE, Strain/Sex: SWISS/FEMALE",lung: adenoma
CN(C)C(=S)SSC(=S)N(C)C,outcome,"Carcinogen: 7,12-DIMETHYLBENZ[A]ANTHRACENE, 57-97-6, Doses [Carcinogen]: 52 UG IN 100 µL ACETONE ONCE, Doses [Promoter]: 0, 100 MG/KG BW IN 100 µL DMSO 3/WK FOR 51 WK BEGINNING 1 WK POST CARCINOGEN DOSE (STUDY DURATION: 52 WK), Route [Carcinogen]: DERMAL, Route [Promoter]: DERMAL, Species: MOUSE, Strain/Sex: SWISS/FEMALE",skin: tumor
same,outcome,"Carcinogen: 7,12-DIMETHYLBENZ[A]ANTHRACENE, 57-97-6, Doses [Carcinogen]: 52 UG IN 100 µL ACETONE ONCE, Doses [Promoter]: 0, 100 MG/KG BW IN 100 µL DMSO 3/WK FOR 51 WK BEGINNING 1 WK POST CARCINOGEN DOSE (STUDY DURATION: 52 WK), Route [Carcinogen]: DERMAL, Route [Promoter]: DERMAL, Species: MOUSE, Strain/Sex: SWISS/MALE",skin: tumor
CCC1(CC)C(=O)NC(=O)NC1=O,outcome,"Carcinogen: DIETHYLNITROSAMINE, 55-18-5, Doses [Carcinogen]: 80 MG/KG BW ONCE, Doses [Promoter]: 0, 0.5% IN DIET FOR 39 WK BEGINNING 1 WK POST CARCINOGEN DOSE (STUDY DURATION: 40 WK), Route [Carcinogen]: INTRAPERITONEAL, Route [Promoter]: ORAL, Species: RAT, Strain/Sex: F344/MALE",liver: tumor
Cc1ncc([N+](=O)[O-])n1CCO,outcome,"Carcinogen: 1,2-DIMETHYLHYDRAZINE, 540-73-8, Doses [Carcinogen]: 40 MG/KG/WK FOR 20 WK, Doses [Promoter]: 0, 18 MG/KG/D FOR 20 WK (STUDY DURATION: 20 WK), Route [Carcinogen]: SUBCUTANEOUS, Route [Promoter]: GAVAGE, Species: RAT, Strain/Sex: WISTAR/MALE",colon: tumor
same,outcome,"Carcinogen: UV IRRADIATION, Doses [Carcinogen]: 0.53 J/CM2 INCREASED BY 20% EVERY 2 WK TO 1.60 J/CM2 AND MAINTAINED AT 1.60 J/CM2 UNTIL DEATH, ADMINISTERED 5 D/WK FOR 1, Doses [Promoter]: 0, 15 UG/G BEGINNING 2 WK POST FIRST CARCINOGEN DOSE ADMINISTERED 2 HR PRIOR TO EACH CARCINOGEN DOSE (STUDY DURATION: 30, Route [Carcinogen]: DERMAL, Route [Promoter]: INTRAPERITONEAL, Species: MOUSE, Strain/Sex: SKH/HRL/FEMALE",skin: tumor
O=C1c2cccc(O)c2C(=O)c2c(O)cccc21,outcome,"Carcinogen: 1,2-DIMETHYLHYDRAZINE, 540-73-8, Doses [Carcinogen]: 20 MG/KG BW 1/WK FOR 12 WK, Doses [Promoter]: 0, 0.2% IN DIET FOR 42 WK BEGINNING POST CARCINOGEN TREATMENT (STUDY DURATION: 54 WK), Route [Carcinogen]: SUBCUTANEOUS, Route [Promoter]: ORAL, Species: MOUSE, Strain/Sex: ICR/CD-1/MALE",colon: tumor; liver: tumor
